In test [1] the target is T1, bovine serum albumin (BSA) (Bos taurus, UniProt P02769).
T1 construct: gene ALB
Nature of the test: fluorescence titration ([…] dye, protein varied). The class given is binding.

For another test, the target named is T2, apomyoglobin (ApoMb) (Equus caballus, UniProt P68082).
T2 construct: gene MB; apo form (heme removed) prepared from equine myoglobin
The test is described as follows: fluorescence titration ([…] dye, protein varied). The class given is binding.

Molecules are shown by their SMILES.

T2 sequence (P68082 2-154): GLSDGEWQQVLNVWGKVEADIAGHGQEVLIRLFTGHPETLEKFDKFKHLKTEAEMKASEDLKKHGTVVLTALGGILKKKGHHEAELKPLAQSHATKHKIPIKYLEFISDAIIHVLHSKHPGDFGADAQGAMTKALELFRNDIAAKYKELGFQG
T1 sequence (P02769 25-607): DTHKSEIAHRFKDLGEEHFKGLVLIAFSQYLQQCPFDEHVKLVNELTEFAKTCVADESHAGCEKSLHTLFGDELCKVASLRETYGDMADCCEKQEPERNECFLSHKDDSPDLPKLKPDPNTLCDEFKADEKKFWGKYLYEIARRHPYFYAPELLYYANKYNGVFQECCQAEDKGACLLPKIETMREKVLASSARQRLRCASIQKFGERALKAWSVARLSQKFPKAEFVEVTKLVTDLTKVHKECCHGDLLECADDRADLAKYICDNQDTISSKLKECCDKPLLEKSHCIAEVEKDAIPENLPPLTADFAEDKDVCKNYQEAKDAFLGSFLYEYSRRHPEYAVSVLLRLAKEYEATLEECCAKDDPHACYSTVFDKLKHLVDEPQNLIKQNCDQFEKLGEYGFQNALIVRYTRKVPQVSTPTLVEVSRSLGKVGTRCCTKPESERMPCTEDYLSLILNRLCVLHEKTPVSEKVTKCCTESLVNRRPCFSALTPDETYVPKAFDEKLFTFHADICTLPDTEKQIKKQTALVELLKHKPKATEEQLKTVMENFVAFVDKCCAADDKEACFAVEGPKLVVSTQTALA

For the compound `COCCNC1=[N+]2C(=C(c3ccc(OC)cc3)c3ccc(NCCOC)n3[B-]2(F)F)C=C1` [compound 2, HPsensor 2], the Kd in test [1] was 34 nM; at apomyoglobin (ApoMb) it was 330 nM.

Values taken from paper PMC4683377, “BODIPY-Based Fluorescent Probes for Sensing Protein Surface-Hydrophobicity” (Scientific Reports, 2015).
